{
  "source": "patent US20190314379A1",
  "about": "“METHODS OF USING CANNABINOID CB2 RECEPTOR AGONIST COMPOSITIONS TO SUPPRESS AND PREVENT OPIOID TOLERANCE AND WITHDRAWAL IN A SUBJECT” (Indiana University Research and Technology Corporation, priority 2018, published 2019)",
  "format_in_all_cases": "in vivo, mouse",
  "key": {"[1]": {"tested_on": "paclitaxel-induced mechanical allodynia", "test": "Paclitaxel-induced mechanical allodynia (electronic von Frey)", "details": "10 mg/kg per day i.p.×12 days", "method": "(§1) In all studies, the experimenter was blinded to the treatment condition, and mice were randomly assigned to experimental conditions. Paclitaxel (4 mg/kg i.p.) was administered four times on alternate days (cumulative dose, 16 mg/kg i.p.) to induce neuropathic pain as described previously by our group (Deng et al., 2015). Control mice received an equal volume of cremophor-vehicle. Development of paclitaxel-induced allodynia was assessed on day 0, 4, 7, 11, and 14.\n(§2) Effects of pharmacologic manipulations were assessed at 30 minutes after drug administration during the maintenance phase of paclitaxel-induced neuropathy (i.e., beginning day 18-20 after initial paclitaxel injection).\n(§3) In experiments 2 and 3, pharmacologic manipulations were performed once daily for 12 consecutive days in each of the two phases of chronic treatment. Four days separated phase 1 and phase 2 chronic dosing in all studies comprising two phases of chronic dosing. Experiments 2 and 3 were performed concurrently using overlapping cohorts that were tested with a single vehicle (phase 1), vehicle (phase 2) group.\n(§4) We then assessed the antiallodynic efficacy of chronic systemic administration of vehicle or morphine (10 mg/kg per day i.p.×12 days) administered during phase 2 in the same animals. Responsiveness to mechanical and cold stimulation was evaluated on treatment days 1, 4, 8, and 12 during phase 1 and on treatment days 16, 19, 23, and 27 during phase 2 (i.e., phase 2 started on day 16).\n(§5) In experiment 4, we evaluated the impact of coadministration of morphine (10 mg/kg i.p.×12 days) with a submaximal dose of LY 2828360 (0.1 mg/kg per day i.p.×12 days) in WT and CB2 KO mice.\nPaw withdrawal thresholds (grams) to mechanical stimulation were measured in duplicate for each paw using an electronic von Frey anesthesiometer supplied with a 90-g probe (model Alemo 2390-5; IITC, Woodland Hills, Calif.) as described previously. Mice were placed on an elevated metal mesh table and allowed to habituate under individual, inverted plastic cages to the testing platform for at least 20 minutes until exploratory behavior had ceased. Alter the habituation period, a force was applied to the midplantar region of the hind paw with a semiflexible tip connected to the anesthesiometer. Mechanical stimulation was terminated when the animal withdrew its paw, and the value of the applied force was recorded in grams. Mechanical paw withdrawal thresholds were obtained in duplicate for each paw and are reported as the mean of duplicate determinations from each animal, averaged across animals, for each group."}, "[2]": {"tested_on": "paclitaxel-induced cold allodynia", "test": "Paclitaxel-induced cold allodynia (acetone)", "details": "10 mg/kg per day i.p.×12 days", "method": "as §1, §2, §3, §4, §5\nResponse time (seconds) spent attending to (i.e., elevating, licking, biting, or shaking) the paw stimulated with acetone (Sigma-Aldrich) was measured in triplicate for each paw to assess cold allodynia as previously published. An acetone bubble (approximately 5 to 6 p.1) formed at the end of a blunt 1-ml syringe hub was gently applied to the plantar surface of the hind paw. Care was taken not to apply mechanical stimulation to the hind paw with the syringe itself. The total time the animal spent attending to the acetone-stimulated paw (i.e., elevation, shaking, or licking) was recorded over 1 minute after acetone application. Acetone was applied three times to each paw with a 3-minute interval between applications. Values for each animal were calculated as the mean of six determinations of acetone responsiveness derived from each mouse."}, "[3]": {"tested_on": "naloxone-precipitated opioid withdrawal", "test": "Naloxone-precipitated opioid withdrawal in paclitaxel-treated mice", "method": "Alter the last injection of morphine (on day 28 for two-phase treatments, on day 13 for coadministration treatment), we challenged WT or CB2KO mice from experiments 2, 3, and 4 with vehicle, followed 30 minutes later by naloxone (5 mg/kg i.p.) to precipitate opioid receptor-mediated withdrawal. Mice were video-recorded for subsequent scoring of withdrawal-like behaviors for a 30-minute interval after challenge with vehicle or naloxone.\nMice were video-taped, and the number of jumps was scored in 5-minute intervals for a total observation period of 30 minutes after challenge with either saline or naloxone (5 mg/kg i.p.)."}, "[4]": {"details": "WT mice, days 16-27, 10 mg/kg/day"}},
  "note": "“Also recorded” adds a separate entry of the source.",
  "data": [
    {"molecule": "CN1CC[C@]23c4c5ccc(O)c4O[C@H]2[C@@H](O)C=C[C@H]3[C@H]1C5", "note": "[morphine, reference compound]", "values": [
      {"measurement": "mechanical allodynia, chronic phase 1 morphine", "setting": "[1]; CB2KO mice", "result": "completely absent on day 8 and day 12"},
      {"measurement": "mechanical allodynia, chronic phase 1 morphine", "setting": "[1]; WT mice, days 4, 8, 12", "result": "tolerance developed to the antiallodynic effects of morphine"},
      {"measurement": "mechanical allodynia, phase 2 morphine after phase 1 vehicle", "setting": "[1]; [4]", "result": "only suppressed paclitaxel-induced mechanical and cold allodynia on day 16; also recorded: no longer efficacious"},
      {"measurement": "cold allodynia, chronic phase 1 morphine", "setting": "[2]; CB2KO mice", "result": "completely absent on day 8 and day 12"},
      {"measurement": "cold allodynia, chronic phase 1 morphine", "setting": "[2]; WT mice, days 4, 8, 12", "result": "tolerance developed to the antiallodynic effects of morphine"},
      {"measurement": "cold allodynia, phase 2 morphine after phase 1 vehicle", "setting": "[2]; [4]", "result": "only suppressed paclitaxel-induced mechanical and cold allodynia on day 16; also recorded: no longer efficacious"},
      {"measurement": "naloxone-precipitated jumping, Veh (1)-Mor (2) vs Veh (1)-Veh (2)", "setting": "[3]; paclitaxel-treated CB2KO mice", "result": "precipitated jumping"},
      {"measurement": "number of naloxone-precipitated jumps, vehicle (1)-morphine (2) vs vehicle (1)-vehicle (2)", "setting": "[3]; paclitaxel-treated WT mice, morphine 10 mg/kg per day×12 days, naloxone 5 mg/kg i.p.", "result": "exhibited a greater number of jumps"},
      {"measurement": "naloxone-precipitated withdrawal, Mor (1)-LY (2) vs Veh (1)-Veh (2)", "setting": "[3]; paclitaxel-treated WT mice, morphine in phase 1", "result": "did not precipitate withdrawal"}
    ]}
  ]
}
